In patent publication US9944645B2, “Imidazotriazines and imidazopyrimidines as kinase inhibitors” (Incyte Holdings Corporation, priority 2006, dated 2018):

The compounds below were run against c-Met kinase (h-Met; histidine-tagged c-Met catalytic domain fusion protein) (Homo sapiens (Human), UniProt P08581) (assay: In Vitro c-Met Kinase Enzyme Assays). Conditions: phosphorylation of poly Glu-Tyr, 5 μM ATP, 25 minutes at 30° C.
Format: biochemical
How it was run: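 His-tagged c-Met catalytic domain reacted 25 min at 30° C, within the linear initial-rate range. Phosphotyrosine detected by ELISA with peroxidase-labeled anti-phospho-tyrosine antibody and TMB, OD read at 450 nm (540 nm correction); IC50 from curve fit.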

c-Met kinase (h-Met; histidine-tagged c-Met catalytic domain fusion protein), sequence (P08581 1078-1345): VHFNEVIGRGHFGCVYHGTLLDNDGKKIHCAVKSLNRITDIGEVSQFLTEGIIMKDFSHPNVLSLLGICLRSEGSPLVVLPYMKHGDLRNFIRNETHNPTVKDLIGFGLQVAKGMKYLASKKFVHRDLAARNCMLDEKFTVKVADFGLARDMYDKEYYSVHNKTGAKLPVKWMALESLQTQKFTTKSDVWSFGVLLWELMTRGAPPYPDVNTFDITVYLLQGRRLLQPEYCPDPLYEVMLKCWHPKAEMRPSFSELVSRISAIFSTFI

IC50, < 500 nM:
CC(NC(=O)C1(c2ccc(-c3cnc4ncc(C5(c6ccc7ncccc7c6)CC5)n4c3)cc2)CC1)c1ccccn1 (centres unmarked) [Example 188, N-(1-Pyridin-2-ylethyl)-1-{4-[3-(1-quinolin-6-ylcyclopropyl)imidazo[1,2-a]pyrimidin-6-yl]phenyl}cyclopropanecarboxamide]
CC(COc1ccccn1)NC(=O)C1(c2ccc(-c3cnc4ncc(C5(c6ccc7ncccc7c6)CC5)n4c3)cc2)CC1 (centres unmarked) [Example 189, N-[1-Methyl-2-(pyridin-2-yloxy)ethyl]-1-{4-[3-(1-quinolin-6-ylcyclopropyl)imidazo[1,2-a]pyrimidin-6-yl]phenyl}cyclopropanecarboxamide]
CNC(=O)C(O)c1ccc(-c2cnc3ncc(C4(c5ccc6ncccc6c5)CC4)n3c2)cc1F (centres unmarked) [Example 190, 2-{2-Fluoro-4-[3-(1-quinolin-6-ylcyclopropyl)imidazo[1,2-a]pyrimidin-6-yl]phenyl}-2-hydroxy-N-methylacetamide]
CN(C)C(=O)C(O)c1ccc(-c2cnc3ncc(C4(c5ccc6ncccc6c5)CC4)n3c2)cc1F (centres unmarked) [Example 191, 2-{2-fluoro-4-[3-(1-quinolin-6-ylcyclopropyl)imidazo[1,2-a]pyrimidin-6-yl]phenyl}-2-hydroxy-N,N-dimethylacetamide]
CCNC(=O)Nc1cccc(Cc2cnc3ncc(-c4ccc(Br)c(F)c4)nn23)c1 [Example 192, N-(3-[2-(4-Bromo-3-fluorophenyl)imidazo[1,2-b][1,2,4]triazin-7-yl]methylphenyl)-N′-ethylurea]
Nc1nc2ncc(C3(c4ccc5ncccc5c4)CC3)n2nc1-c1cccc(Cl)c1Cl [Example 193, 2-(2,3-Dichlorophenyl)-7-(1-quinolin-6-ylcyclopropyl)imidazo[1,2-b][1,2,4]triazin-3-amine]
CNC(=O)c1ccc(-c2cnc3ncc(C4(c5ccc6ncccc6c5)CC4)n3c2)c(F)c1F [Example 194, 2,3-Difluoro-N-methyl-4-[3-(1-quinolin-6-ylcyclopropyl)imidazo[1,2-a]pyrimidin-6-yl]benzamide]
CNC(=O)c1c(F)cc(-c2cnc3ncc(C4(c5ccc6ncccc6c5)CC4)n3c2)cc1F [Example 195, 6-Difluoro-N-methyl-4-[3-(1-quinolin-6-ylcyclopropyl)imidazo[1,2-a]pyrimidin-6-yl]benzamide]
CNS(=O)(=O)c1ccc(-c2cnc3ncc(C4(c5ccc6ncccc6c5)CC4)n3c2)cc1F [Example 196, 2-Fluoro-N-methyl-4-[3-(1-quinolin-6-ylcyclopropyl)imidazo[1,2-a]pyrimidin-6-yl]benzenesulfonamide]
CN(C)C(=O)Cn1ccc(-c2cnc3ncc(C4(c5ccc6ncccc6c5)CC4)n3c2)n1 [Example 197, N,N-Dimethyl-2-{3-[3-(1-quinolin-6-ylcyclopropyl)imidazo[1,2-a]pyrimidin-6-yl]-1H-pyrazol-1-yl}acetamide]
CC(C)(C)[C@H](NC(=O)c1ccc(-c2cnc3ncc(C4(c5ccc6ncccc6c5)CC4)n3c2)cc1F)C(=O)N1CCC1 [Example 198, N-[(1S)-1-(Azetidin-1-ylcarbonyl)-2,2-dimethylpropyl]-2-fluoro-4-[3-(1-quinolin-6-ylcyclopropyl)imidazo[1,2-a]pyrimidin-6-yl]benzamide]
CC(NC(=O)c1ccc(-c2cnc3ncc(C4(c5ccc6ncccc6c5)CC4)n3c2)cc1F)C(=O)N(C)C (centres unmarked) [Example 199, N-[2-(Dimethylamino)-1-methyl-2-oxoethyl]-2-fluoro-4-[3-(1-quinolin-6-ylcyclopropyl)imidazo[1,2-a]pyrimidin-6-yl]benzamide]
CC(NC(=O)c1ccc(-c2cnc3ncc(C4(c5ccc6ncccc6c5)CC4)n3c2)cc1F)C(=O)N1CCC1 (centres unmarked) [Example 200, N-(2-Azetidin-1-yl-1-methyl-2-oxoethyl)-2-fluoro-4-[3-(1-quinolin-6-ylcyclopropyl)imidazo[1,2-a]pyrimidin-6-yl]benzamide]
O=C(NCC1(O)CC1)c1ccc(-c2cnc3ncc(Cc4ccc5ncccc5c4)n3n2)cc1F [Example 202, 2-Fluoro-N-[(1-hydroxycyclopropyl)methyl]-4-[7-(quinolin-6-ylmethyl)imidazo[1,2-b][1,2,4]triazin-2-yl]benzamide]
COC(=O)N1CCC(CC#N)(n2cc(-c3cnc4ncc(Cc5ccc6ncccc6c5)n4n3)cn2)CC1 [Example 203, Methyl 4-(cyanomethyl)-4-{4-[7-(quinolin-6-ylmethyl)imidazo[1,2-b][1,2,4]triazin-2-yl]-1H-pyrazol-1-yl}piperidine-1-carboxylate]
CCOC(=O)N1CCC(CC#N)(n2cc(-c3cnc4ncc(Cc5ccc6ncccc6c5)n4n3)cn2)CC1 [Example 204, Ethyl 4-(cyanomethyl)-4-{4-[7-(quinolin-6-ylmethyl)imidazo[1,2-b][1,2,4]triazin-2-yl]-1H-pyrazol-1-yl}piperidine-1-carboxylate]
CC(=O)N1CCC(CC#N)(n2cc(-c3cnc4ncc(Cc5ccc6ncccc6c5)n4n3)cn2)CC1 [Example 205, (1-Acetyl-4-{4-[7-(quinolin-6-ylmethyl)imidazo[1,2-b][1,2,4]triazin-2-yl]-1H-pyrazol-1-yl}piperidin-4-yl)acetonitrile]
